Data: patent publication US10214542B2, “Modified macrocyclic compounds” (BAYER PHARMA AKTIENGESELLSCHAFT, priority 2015, dated 2019)
Several values for one entry are separate records, joined by “and”; a condition that tells them apart may be missing. Identical values can stand only once. Like-named read-outs stand apart in the source and are kept apart here. Marks after values point to notes of the source that are not given here.

What was measured:
[1] = target: T1, human PTEFb (CDK9/Cyclin T1) (Homo sapiens, UniProt P50750); assay: Surface Plasmon Resonance PTEFb (Method 8); type: binding; settings: 25° C., experimental parameters A-G per value; for Target resident time: 1/koff; for koff: read-out: Dissociation rate constant koff
T1 construct: purchased ProQinase, Freiburg, Germany
T1 sequence (P50750 whole entry): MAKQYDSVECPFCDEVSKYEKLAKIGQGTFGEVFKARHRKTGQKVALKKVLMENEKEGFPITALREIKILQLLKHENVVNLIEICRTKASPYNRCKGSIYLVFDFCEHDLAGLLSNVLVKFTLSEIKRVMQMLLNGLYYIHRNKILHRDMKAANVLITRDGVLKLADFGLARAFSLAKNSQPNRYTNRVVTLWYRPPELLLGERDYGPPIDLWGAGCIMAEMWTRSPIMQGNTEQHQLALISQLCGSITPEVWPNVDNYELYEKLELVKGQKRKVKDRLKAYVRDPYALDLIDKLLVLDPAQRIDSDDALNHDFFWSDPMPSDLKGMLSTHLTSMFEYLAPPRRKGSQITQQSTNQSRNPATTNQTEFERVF
T1 sequence (O60563 whole entry partner): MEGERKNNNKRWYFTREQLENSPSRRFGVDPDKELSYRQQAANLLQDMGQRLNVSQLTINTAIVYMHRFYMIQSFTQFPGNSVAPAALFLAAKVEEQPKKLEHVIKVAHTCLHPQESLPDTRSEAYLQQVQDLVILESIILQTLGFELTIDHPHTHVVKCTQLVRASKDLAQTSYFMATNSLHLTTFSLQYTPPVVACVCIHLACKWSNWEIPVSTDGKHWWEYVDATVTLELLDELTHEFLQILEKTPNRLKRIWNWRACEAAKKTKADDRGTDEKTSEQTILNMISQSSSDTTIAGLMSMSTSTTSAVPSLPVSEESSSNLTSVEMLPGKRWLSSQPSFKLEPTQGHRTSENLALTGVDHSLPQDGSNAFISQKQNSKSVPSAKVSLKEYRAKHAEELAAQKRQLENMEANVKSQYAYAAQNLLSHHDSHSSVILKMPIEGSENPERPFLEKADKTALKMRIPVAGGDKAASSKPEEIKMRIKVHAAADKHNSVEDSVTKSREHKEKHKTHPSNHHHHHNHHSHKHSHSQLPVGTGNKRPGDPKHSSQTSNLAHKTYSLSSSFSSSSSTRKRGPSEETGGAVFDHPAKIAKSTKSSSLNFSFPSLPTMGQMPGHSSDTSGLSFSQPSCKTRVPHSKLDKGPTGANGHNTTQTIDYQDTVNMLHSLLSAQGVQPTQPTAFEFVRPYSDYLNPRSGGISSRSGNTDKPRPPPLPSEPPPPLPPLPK
Source text: 8. Surface Plasmon Resonance PTEFb
The ability of the compounds according to the invention to bind human PTEFb may be determined using surface plasmon resonance (SPR). KD values and koff values may be measured using a Biacore® T200 instrument (GE Healthcare, Uppsala, Sweden).
For SPR measurements, recombinant human PTEFb (CDK9/Cyclin T1 recombinant human active protein kinase purchased from ProQinase, Freiburg, Germany) is immobilized using standard amine coupling (Johnsson B et al, Anal Biochem. 1991 Nov. 1; 198(2):268-77). Briefly, carboxymethylated dextran biosensor chips (CM7, GE Healthcare) are activated with N-ethyl-N′-(3-dimethylaminopropyl)-carbodiimide hydrochloride (EDC) and N-hydroxysuccinimide (NHS) according to the supplier's instructions. Human PTEFb is diluted in 1×HBS-EP+ (GE Healthcare) and injected on the activated chip surface. Subsequently, a 1:1 solution of 1 M ethanolamine-HCl (GE Healthcare) and 1×HBS-EP is injected to block unreacted groups, resulting in approximately 4000 response units (RU) of immobilized protein. A reference surface is generated by treatment with NHS-EDC and ethanolamine-HCl. Compounds are dissolved in 100% dimethylsulfoxide (DMSO, Sigma-Aldrich, Germany) to a concentration of 10 mM and subsequently diluted in running buffer (1×HBS-EP+ pH 7.4 [generated from HBS-EP+ Buffer 10× (GE Healthcare): 0.1 M HEPES, 1.5 M NaCl, 30 mM EDTA and 0.5% v/v Surfactant P20], 1% v/v DMSO). For kinetic measurements, serial dilutions of compound (0.82 nM up to 2 μM) are injected over immobilized protein. Binding kinetics is measured at 25° C. with a flow rate of 50 μl/min in running buffer. Compound concentrations are injected for 60 s followed by a dissociation time of 1800 s. The resulting sensorgrams are double-referenced against the reference surface as well as against blank injections.
The double-referenced sensorgrams are fit to a simple reversible Langmuir 1:1 reaction mechanism as implemented in the Biacore® T200 evaluation software 2.0 (GE Healthcare). In cases were full compound dissociation has not occurred at the end of the dissociation phase, the Rmax parameter (response at saturation) is fit as local variable. In all other cases, Rmax is fit as global variable.
Slight variations of experimental parameters are indicated by letters (A-G): […]

[2] = target: T1, human PTEFb (CDK9/Cyclin T1); assay: Surface Plasmon Resonance PTEFb (Method 8); type: binding; settings: 37° C., experimental parameters E; for Target resident time: 1/koff; for koff: read-out: Dissociation rate constant koff

SMILES | Target resident time [1] | koff [1] | Dissociation rate constant koff [1] | Target resident time [2] | koff [2]
CN1CCCCOc2cc(F)ccc2-c2cc(ncc2F)Nc2cc(CS(C)(=N)=O)cc1n2 (racemic) [Example 11, (rac)-16,20-difluoro-6-methyl-9-[(S-methylsulfonimidoyl)methyl]-3,4,5,6-tetrahydro-2H-7,11-(azeno)-17,13-(metheno)-1,6,12,14-benzoxatriazacyclononadecine] | >666* min | < 2.5e-05 s⁻¹ | – | – | –
C[S+]([O-])Cc1cc2nc(c1)OCCCCc1cc(F)ccc1-c1cc(ncc1F)N2 (racemic) [Example 5, (rac)-2,18-Difluoro-9-[(methylsulfinyl)methyl]-13,14,15,16-tetrahydro-6H-7,11-(azeno)-5,1-(metheno)-12,4,6-benzoxadiazacyclooctadecine] | 17.2 min | 0.000968 s⁻¹ | – | – | –
CSCc1cc2nc(c1)OCCCCc1cc(F)ccc1-c1cc(ncc1F)N2 [Example 4, 2,18-Difluoro-9-[(methylsulfanyl)methyl]-13,14,15,16-tetrahydro-6H-7,11-(azeno)-5,1-(metheno)-12,4,6-benzoxadiazacyclooctadecine] | 14.6 min | 0.00114 s⁻¹ | – | – | –
CS(=O)(Cc1cc2nc(c1)Nc1cc(c(F)cn1)-c1ccc(F)cc1OCCCCN2)=NC(=O)OCc1ccccc1 (racemic) [Example 2, (rac)-Benzyl[{[16,20-difluoro-3,4,5,6-tetrahydro-2H,12H-11,7-(azeno)-13,17-(metheno)-1,6,12,14-benzoxatriazacyclononadecin-9-yl]methyl}(methyl)oxido-λ^6-sulfanylidene]carbamate] | 44.9 min and 33.1 min | 0.000371 s⁻¹ | 0.000504 s⁻¹ | – | –
CS(=N)(=O)Cc1cc2cc(c1)OCCCCSc1cc(F)ccc1-c1nc(ncc1F)N2 (racemic) [Example 22, (rac)-16,20-difluoro-9-[(S-methylsulfonimidoyl)methyl]-2,3,4,5-tetrahydro-12H-17,13-(azeno)-11,7-(metheno)-6,1,12,14-benzoxathiadiazacyclononadecine] | – | – | – | 17.5* min | 0.000954 s⁻¹
CC(C)(C)OC(=O)N=S(C)(=O)Cc1cc2nc(c1)Nc1cc(c(F)cn1)-c1ccc(F)cc1OCCCN2 (racemic) [Example 7, (rac)-tert-butyl[{[15,19-difluoro-2,3,4,5-tetrahydro-11H-10,6-(azeno)-16,12-(metheno)-1,5,11,13-benzoxatriazacyclooctadecin-8-yl]methyl}(methyl)oxido-λ^6-sulfanylidene]carbamate] | >666* min | < 2.5e-05 s⁻¹ | – | – | –
CN1CCCCOc2cc(F)ccc2-c2nc(ncc2F)Nc2cc(CS(C)(=N)=O)cc1c2 (racemic) [Example 23, (rac)-16,20-difluoro-6-methyl-9-[(S-methylsulfonimidoyl)methyl]-3,4,5,6-tetrahydro-2H,12H-13,17-(azeno)-11,7-(metheno)-1,6,12,14-benzoxatriazacyclononadecine] | 87.3* min | 0.000191 s⁻¹ | – | – | –
C[S+]([O-])Cc1cc2nc(c1)OCCCCCc1cc(F)ccc1-c1cc(ncc1F)N2 (racemic) [Example 19, (rac)-2,19-difluoro-9-[(methylsulfinyl)methyl]-14,15,16,17-tetrahydro-6H,13H-7,11-(azeno)-5,1-(metheno)-12,4,6-benzoxadiazacyclononadecine] | 4.8* min | 0.00345 s⁻¹ | – | – | –
CN1CCCCNc2cc(F)ccc2-c2nc(ncc2F)Nc2cc(CS(C)(=N)=O)cc1c2.O=CO (racemic) [Example 17, (rac)-16,20-difluoro-6-methyl-9-[(S-methylsulfonimidoyl)methyl]-1,2,3,4,5,6-hexahydro-12H-17,13-(azeno)-11,7-(metheno)-1,6,12,14-benzotetraazacyclononadecine; salt with formic acid] | – | – | – | 115.7* min | 0.000144 s⁻¹
CS(=N)(=O)Cc1cc2nc(c1)OCCCCCc1cc(F)ccc1-c1cc(ncc1F)N2 (racemic) [Example 20, (rac)-2,19-difluoro-9-[(S-methylsulfonimidoyl)methyl]-14,15,16,17-tetrahydro-6H,13H-7,11-(azeno)-5,1-(metheno)-12,4,6-benzoxadiazacyclononadecine] | 14.7* min | 0.00113 s⁻¹ | – | – | –
CS(=N)(=O)Cc1cc2cc(c1)OCCCCNc1cc(F)ccc1-c1nc(ncc1F)N2 (racemic) [Example 16, (rac)-16,20-difluoro-9-[(S-methylsulfonimidoyl)methyl]-2,3,4,5-tetrahydro-1H-17,13-(azeno)-7,11-(metheno)-6,1,12,14-benzoxatriazacyclononadecine] | – | – | – | 46.3* min | 0.00036 s⁻¹
CC(C)(C)OC(=O)N=S(C)(=O)Cc1cc2cc(c1)OCCCCNc1cc(F)ccc1-c1nc(ncc1F)N2 (racemic) [Example 15, (rac)-tert-butyl[{[16,20-difluoro-2,3,4,5-tetrahydro-1H,12H-13,17-(azeno)-11,7-(metheno)-6,1,12,14-benzoxatriazacyclononadecin-9-yl]methyl}(methyl)oxido-λ^6-sulfanylidene]carbamate] | > 666 min and 372.9 min | < 2.5e-05 s⁻¹ | 4.47e-05 s⁻¹ | – | –
